Patent US5527820A, “Antibiotics having immunosuppressive activity, delaminomycins and processes for the production of the same” (priority 1992, dated 1996)
Converted amounts (≈) assume the structure as drawn. Like-named read-outs stand apart in the source and are kept apart here.

Columns and labels:
[1] = system: delayed-type hypersensitivity (DTH); experiment: Suppressive effect on delayed-type hypersensitivity (DTH) in mouse, oral; assay type: in vivo, mouse (CDF1); conditions: oral once a day, 0~4th day
Description: CDF1 mice were immunized by intravenously injecting sheep red blood cells (10^5 cells/mouse). On the 4th day after the immunization, sheep red blood cells (10^8 cells/mouse) were subcutaneously injected into the footpad of mice for the elicitation to cause a delayed-type hypersensitivity. Test compound was orally administered to the mice once a day from the 0 th day to the 4 th day after the immunization. On the 5th day after the elicitation, the thickness of the mouse footpad was measured to estimate the suppressive effect of the test compound on DTH. The suppressive effect of the test compound was evaluated in terms of the inhibition rate (%) as calculated according to the following equation:
Inhibition rate (%)=100-(T/C×100)
wherein T denotes the thickness of the footpad when the test compound was administered, but C denotes the thickness of the footpad when no test compounnd was administered.

Candida albicans 3147 = experiment: MIC, agar plate dilution method; assay type: cell-based; conditions: 27° C., 42 hours, nutrient agar containing glucose
Human Lymphoma Jurkat = experiment: Inhibitory activity on proliferation of cancer cells; assay type: cell-based
[2] = system: Candida pseudotropicalis F-2; experiment: MIC, agar plate dilution method; assay type: cell-based; conditions: Kluyveromyces marxianus, F2; 27° C., 42 hours, nutrient agar containing glucose
[3] = system: Saccharomyces cerevisiae F-7; experiment: MIC, agar plate dilution method; assay type: cell-based; conditions: F7, 27° C., 42 hours, nutrient agar containing glucose
[4] = system: Trichophyton mentagrophytes F-15 (833); experiment: MIC, agar plate dilution method; assay type: cell-based; conditions: 27° C., 42 hours, nutrient agar containing glucose
Mouse leukemia EL-4 = experiment: Inhibitory activity on proliferation of cancer cells; assay type: cell-based; conditions: EL4
Pellicularia sasakii = experiment: MIC, agar plate dilution method; assay type: cell-based; conditions: 27° C., 42 hours, nutrient agar containing glucose
[5] = Absorption into the digestive tracts on oral administration; conditions: result in words
Mouse melanoma B-16 = experiment: Inhibitory activity on proliferation of cancer cells; assay type: cell-based; conditions: B16
Piricularia oryzae = experiment: microbe, parasite or virus in culture; assay type: cell-based; conditions: 42 h
Mouse leukemia P388D1 = experiment: Inhibitory activity on proliferation of cancer cells; assay type: cell-based
Candida krusei F-5 = experiment: MIC, agar plate dilution method; assay type: cell-based; conditions: Pichia kudriavzevii, F5; 27° C., 42 hours, nutrient agar containing glucose
Mouse leukemia L-1210 = experiment: Inhibitory activity on proliferation of cancer cells; assay type: cell-based; conditions: L1210
Aspergillus niger F-16 = experiment: MIC, agar plate dilution method; assay type: cell-based; conditions: F16, 27° C., 42 hours, nutrient agar containing glucose
[6] = system: spleen cells (T cells activated by Concanavalin A); experiment: Inhibitory activity against blastogenesis and proliferation of spleen cells caused by mitogen (Con A); assay type: cell-based, mouse (CDF1); conditions: for IC50: read-out: IC50 (inhibition of blastogenesis and proliferation of spleen lymphocyte caused by Con A); for inhibition at 0.39 µg/mL: 0.39 μg/ml test compound; for inhibition at 6.25 µg/mL: 6.25 μg/ml test compound; for inhibition at 25 µg/mL: 25 μg/ml test compound; for inhibition at 100 µg/mL: 100 μg/ml test compound; for activity inhibitory to the reaction of proliferation of mouse spleen cells activated with Concanavalin A: in vitro, result in words; for inhibition at 1.56 µg/mL: 1.56 μg/ml test compound
Candida tropicalis F-1 = experiment: MIC, agar plate dilution method; assay type: cell-based; conditions: F1, 27° C., 42 hours, nutrient agar containing glucose
Candida Yu-1200 = experiment: MIC, agar plate dilution method; assay type: cell-based; conditions: YU1200, 27° C., 42 hours, nutrient agar containing glucose
Solubility = conditions: result in words; for Solubility: various solvents
[7] = system: Trichophyton asteroides 429; experiment: MIC, agar plate dilution method; assay type: cell-based; conditions: 27° C., 42 hours, nutrient agar containing glucose
[8] = system: nylon wool-passed cells of spleen cells (responder cell; T cells); experiment: Inhibitory activity to the mixed lymphocyte culture reaction; assay type: cell-based, rat (Fischer F344 responder; WKY stimulator); conditions: for inhibition at 1.56 µg/mL / inhibition at 0.1 µg/mL / inhibition at 0.39 µg/mL / inhibition at 6.25 µg/mL / inhibition at 25 µg/mL / inhibition at 100 µg/mL / IC50: Rattus norvegicus, T-cell; for inhibition at 1.56 µg/mL / inhibition at 0.1 µg/mL / inhibition at 0.39 µg/mL / inhibition at 6.25 µg/mL / inhibition at 25 µg/mL / inhibition at 100 µg/mL: read-out: Inhibition rate; for inhibition at 0.1 µg/mL: 0.10 μg/ml test compound; for inhibition at 0.39 µg/mL: 0.39 μg/ml test compound; for inhibition at 6.25 µg/mL: 6.25 μg/ml test compound; for inhibition at 25 µg/mL: 25 μg/ml test compound; for inhibition at 100 µg/mL: 100 μg/ml test compound; for IC50: 120 hours, 3H-thymidine incorporation, read-out: IC50 (inhibition of mixed lymphocyte culture reaction); for activity to inhibit the proliferation of the T cells (responder cell) in mixed lymphocyte culture reaction: in vitro, result in words
Cochliobolus miyabeanus = experiment: MIC, agar plate dilution method; assay type: cell-based; conditions: Bipolaris oryzae; 27° C., 42 hours, nutrient agar containing glucose
Description: (§1) Delaminomycins A, B, C, A2, B2 and C2 according to this invention further have an antibacterial activity against a variety of bacteria. The minimum growth inhibitory concentrations (MIC) (μg/ml) of the novel antibiotics of this invention on various bacteria and fungi as measured by the agar plate dilution method are shown in Table 5a, Table 5b, Table 5c and Table 5d below.
(§2) Evaluated after culturing at 27° C. for 42 hours in nutrient agar
(§3) medium containing glucose.

Xanthomonas citri = experiment: MIC, agar plate dilution method; assay type: cell-based; conditions: 27° C., 42 hours, nutrient agar containing glucose
Description: as §1, §2, §3

Gram-positive bacteria = experiment: Antibacterial activity to Gram-positive bacteria; assay type: cell-based; conditions: result in words
From the text: as §1

[9] = Mus musculus, T-cell, read-out: Inhibition rate

SMILES: CCC(OS(=O)(=O)O)C(C)/C=C/C=C/C1CC2C=CC3CC(C)CC(C)C3C2(C)C(=O)C12C(=O)NC(O)C2=O (stereo not drawn)
- Inhibition rate (DTH footpad thickness) ([1]; 0.5 mg/mouse): -0.7%
- Inhibition rate (DTH footpad thickness) ([1]; 2.0 mg/mouse): 56.3%
- Inhibition rate (DTH footpad thickness) ([1]; 8.0 mg/mouse): 85.2%

SMILES: CCC(OS(=O)(=O)O)C(C)/C=C/C=C/C1CC2C=CC3CC(C)CC(C)C3C2(C)C(=O)C12C(=O)NC(OC)C2=O (stereo not drawn)
- Inhibition rate (DTH footpad thickness) ([1]; 2.0 mg/mouse): 40.2%

SMILES: CCC(OS(=O)(=O)O)C(C)/C=C/C=C/C1CC2C=CC3CC(C)CC(C)C3C2(C)C(=O)C12C(=O)CNC2=O (stereo not drawn)
- Inhibition rate (DTH footpad thickness) ([1]; 2.0 mg/mouse): 35.4%

SMILES: CCC(O)C(C)/C=C/C=C/C(O)CC1C=CC2CC(C)CC(C)C2C1(C)C(=O)C1C(=O)NC(OC)C1=O (stereo not drawn) [Delaminomycin B]
- MIC (Candida albicans 3147): > 100 µg/mL
- IC50 (Human Lymphoma Jurkat): 8.2 µg/mL (≈ 15.9 µM)
- MIC [2]: > 100 µg/mL
- MIC [3]: > 100 µg/mL
- MIC [4]: > 100 µg/mL
- IC50 (Mouse leukemia EL-4): 11.1 µg/mL (≈ 21.5 µM)
- MIC (Pellicularia sasakii): > 50 µg/mL
- absorption into the digestive tracts / oral absorption [5]: hardly absorbed into the digestive tracts
- IC50 (Mouse melanoma B-16): > 100 µg/mL
- MIC (Piricularia oryzae): > 100 µg/mL
- IC50 (Mouse leukemia P388D1): 13.3 µg/mL (≈ 25.8 µM)
- MIC (Candida krusei F-5): > 100 µg/mL
- IC50 (Mouse leukemia L-1210): 30 µg/mL (≈ 58.2 µM)
- MIC (Aspergillus niger F-16): > 100 µg/mL
- IC50 ([6]; Mus musculus, T-cell): 4 µg/mL (≈ 7.76 µM)
- inhibition at 0.39 µg/mL [6, 9]: 0%
- inhibition at 6.25 µg/mL [6, 9]: 77%
- inhibition at 25 µg/mL [6, 9]: 69%
- inhibition at 100 µg/mL [6, 9]: 70%
- activity inhibitory to the reaction of proliferation of mouse spleen cells activated with Concanavalin A [6]: exhibit an activity inhibitory to the reaction of proliferation of mouse spleen cells
- MIC (Candida tropicalis F-1): > 100 µg/mL
- MIC (Candida Yu-1200): > 100 µg/mL
- Solubility (Solubility): soluble in methanol but slightly soluble or insoluble in water, acetone, ethyl ether and n-hexane
- Solubility in water (Solubility): barely soluble in water
- MIC [7]: > 100 µg/mL
- inhibition at 1.56 µg/mL [8]: 58.4%
- inhibition at 0.1 µg/mL [8]: 12.1%
- inhibition at 0.39 µg/mL [8]: 27.9%
- inhibition at 6.25 µg/mL [8]: 95.1%
- inhibition at 25 µg/mL [8]: 95%
- inhibition at 100 µg/mL [8]: 93.2%
- IC50 [8]: 1.1 µg/mL (≈ 2.13 µM)
- activity to inhibit the proliferation of the T cells (responder cell) in mixed lymphocyte culture reaction [8]: have an activity to inhibit the reaction of proliferation of the T cells
- MIC (Cochliobolus miyabeanus): > 100 µg/mL
- MIC (Xanthomonas citri): > 100 µg/mL

SMILES: CCC(O)C(C)/C=C/C=C/C1CC2C=CC3CC(C)CC(C)C3C2(C)C(=O)C12C(=O)CNC2=O (stereo not drawn) [Delaminomycin C2]
- antibacterial activity to Gram-positive bacteria (Gram-positive bacteria): antibacterial activity to Gram-positive bacteria
- Inhibition rate (DTH footpad thickness) ([1]; 2.0 mg/mouse): 25.7%
- absorption into the digestive tracts / oral absorption [5]: hardly absorbed into the digestive tracts
- IC50 (Mouse leukemia L-1210): 3.6 µg/mL (≈ 7.7 µM)
- IC50 ([6]; Mus musculus, T-cell): 1.6 µg/mL (≈ 3.42 µM)
- inhibition at 0.1 µg/mL ([6]; Mus musculus, T-cell, 0.1 μg/ml test compound, read-out: Inhibition rate): 0%
- inhibition at 0.39 µg/mL [6, 9]: 0%
- inhibition at 1.56 µg/mL [6, 9]: 49%
- inhibition at 6.25 µg/mL [6, 9]: 84%
- inhibition at 25 µg/mL [6, 9]: 85%
- inhibition at 100 µg/mL [6, 9]: 93%
- activity inhibitory to the reaction of proliferation of mouse spleen cells activated with Concanavalin A [6]: exhibit an activity inhibitory to the reaction of proliferation of mouse spleen cells
- Solubility (Solubility): Soluble in methanol, ethyl acetate and chloroform but slightly soluble or insoluble in n-hexane and water
- Solubility in water (Solubility): barely soluble in water
- inhibition at 0.1 µg/mL [8]: -7%
- inhibition at 0.39 µg/mL [8]: -6%
- inhibition at 1.56 µg/mL ([8]; 1.56 μg/ml test compound): 1%
- inhibition at 6.25 µg/mL [8]: -1%
- inhibition at 25 µg/mL [8]: 29%
- inhibition at 100 µg/mL [8]: 99%
- IC50 [8]: 37.9 µg/mL (≈ 81 µM)
- activity to inhibit the proliferation of the T cells (responder cell) in mixed lymphocyte culture reaction [8]: have an activity to inhibit the reaction of proliferation of the T cells

SMILES: CCC(O)C(C)/C=C/C=C/C(O)CC1C=CC2CC(C)CC(C)C2C1(C)C(=O)C1C(=O)CNC1=O (stereo not drawn) [Delaminomycin C]
- MIC (Candida albicans 3147): > 100 µg/mL
- antibacterial activity to Gram-positive bacteria (Gram-positive bacteria): antibacterial activity to Gram-positive bacteria
- IC50 (Human Lymphoma Jurkat): 1.2 µg/mL (≈ 2.47 µM)
- MIC [2]: > 100 µg/mL
- MIC [3]: > 100 µg/mL
- MIC [4]: > 100 µg/mL
- IC50 (Mouse leukemia EL-4): 1.9 µg/mL (≈ 3.91 µM)
- MIC (Pellicularia sasakii): > 50 µg/mL
- absorption into the digestive tracts / oral absorption [5]: hardly absorbed into the digestive tracts
- IC50 (Mouse melanoma B-16): 7.4 µg/mL (≈ 15.2 µM)
- MIC (Piricularia oryzae): > 100 µg/mL
- IC50 (Mouse leukemia P388D1): 3.1 µg/mL (≈ 6.38 µM)
- MIC (Candida krusei F-5): > 100 µg/mL
- IC50 (Mouse leukemia L-1210): 42 µg/mL (≈ 86.5 µM)
- MIC (Aspergillus niger F-16): > 100 µg/mL
- IC50 ([6]; Mus musculus, T-cell): 1 µg/mL (≈ 2.06 µM)
- inhibition at 0.39 µg/mL [6, 9]: 1%
- inhibition at 1.56 µg/mL [6, 9]: 75%
- inhibition at 6.25 µg/mL [6, 9]: 75%
- inhibition at 25 µg/mL [6, 9]: 76%
- inhibition at 100 µg/mL [6, 9]: 76%
- activity inhibitory to the reaction of proliferation of mouse spleen cells activated with Concanavalin A [6]: exhibit an activity inhibitory to the reaction of proliferation of mouse spleen cells
- MIC (Candida tropicalis F-1): > 100 µg/mL
- MIC (Candida Yu-1200): > 100 µg/mL
- Solubility (Solubility): soluble in methanol but slightly soluble or insoluble in water, acetone, ethyl ether and n-hexane
- Solubility in water (Solubility): barely soluble in water
- MIC [7]: > 100 µg/mL
- inhibition at 0.1 µg/mL [8]: 19.5%
- inhibition at 0.39 µg/mL [8]: 41.6%
- inhibition at 1.56 µg/mL ([8]; 1.56 μg/ml test compound): 89%
- inhibition at 6.25 µg/mL [8]: 97.3%
- inhibition at 25 µg/mL [8]: 97.6%
- inhibition at 100 µg/mL [8]: 96.9%
- IC50 [8]: 0.5 µg/mL (≈ 1.03 µM)
- activity to inhibit the proliferation of the T cells (responder cell) in mixed lymphocyte culture reaction [8]: have an activity to inhibit the reaction of proliferation of the T cells
- MIC (Cochliobolus miyabeanus): > 100 µg/mL
- MIC (Xanthomonas citri): > 100 µg/mL
